Literature values in patent publication US20240226034A1, “Use of Terpenoids and Salicylates as Anesthetics and Analgesics” (THE REGENTS OF THE UNIVERSITY OF CALIFORNIA, priority 2021, published 2024).

Columns and labels:
[1] = system: GABAA receptors, rat cerebral cortex cell cultures; conditions: 0.75 mM; cited from earlier work
[2] = system: sciatic nerve axon of frogs; conditions: frog sciatic nerve axon; read-out: IC50, decrease of compound action potential amplitude; cited from earlier work
rat sciatic nerves = conditions: read-out: IC50, decrease of compound action potentials; cited from earlier work

For L-carvone, the “reduction of GABAA-induced benzodiazepine binding” value [1] is listed as 36%, the IC50 [2] is listed as 1.4 mM and the IC50 (rat sciatic nerves) is listed as 8.7 mM.
